The test system of assay [1] is scopolamine-induced amnesia mouse. Description: Y-maze test, short-term working memory of scopolamine-induced amnesia mouse (Test Example 2). To be noted: for scopolamine-induced reduction in working memory (Spontaneous Alternation): FIG. 2(C). The format is in vivo, ddY mouse. The protocol:
The effect of inhibiting lowering of short-term memory was examined by orally or subcutaneously (intraperitoneally) administering the compound A to the mouse.
(§1) 7-weeks-old male ddY mice were purchased from Japan SLC, Inc. and subjected to the experiment after one week habituation period. The animals were reared in the rearing chamber provided with air conditioner (under the condition that the temperature was 22° C.±1° C., the relative humidity was 50±10%, and the irradiation time was 12 hours (8:00 to 20:00)). The feeding method was that the commercially available MF powdery feed (manufactured by Oriental Yeast Co., ltd.) and tap water were taken freely.
The compound A prepared according to the procedure described in Manufacturing Example 1 was dissolved in 2.5% DMSO solution in advance. There were 15 mice in each group, and the 30 mg/kg compound administration group and the 10 mg/kg compound administration group were established and orally administered. The mice of the control group and Vehicle group were orally administered with only 2.5% DMSO solution. In the same manner the compound B and the compound C were orally administered to 10 mice at a dose of 30 mg/kg respectively. Each mouse of the administration groups of the compound A to C and the vehicle group was intraperitoneally administered with scopolamine hydrobromide (manufactured by Sigma-Aldrich Japan S1875) (a dose of 1 mg/kg) which is muscarinic acetylcholine receptor antagonist 30 minutes after the administration. The mice of the control group which were not administered with scopolamine hydrobromide were intraperitoneally administered with (Japanese Pharmacopoeia) physiological saline solution (OTSUKA NORMAL SALINE 3311401A2026). At 30 minutes after the final administration, Y-maze test was conducted, and the working memory was evaluated. The test using the mice orally administered was separately conducted under the same condition as that described above for comparative evaluation of the intraperitoneal administration.
The Y-maze manufactured by Brain Science. idea Co., Ltd. was used for the test. The maze was the maze 3 courses of which were made into Y-letter shape having one selection point and arranged at interval of an angle of 120 degree. […] The mouse put on the gray course (made of polyvinyl chloride) was kept in the conditions and the mouse can see nothing but the upper part. Any one of the 3 courses of the maze was set as a starting point. After placing the mouse quietly at the starting point, the number of the times the mouse entered each course was record per 8 minutes, and as well as which course and in what order the mouse entered it. The ratio of the number of three consecutive entries into different courses (the number of the alternation behavior) to the total number of the selections was calculated as Spontaneous Alternation (%) according to the following formula and was used as an index of the short-term working memory.
From the results obtained, the mean (Mean) and the standard error (SEM) were calculated. The significant difference between the control group and the Vehicle group and between the compound A administration group and the Vehicle group was assessed by Turkey-Kramer's test. The level of significance was set to *P<0.05 and **p<0.01.

For assay [2], the system named is extracellular acetylcholine in the cerebral cortex. The experiment in a line: Amount of extracellular acetylcholine in mouse brain by in vivo microdialysis (Test Example 1). Also on record: species or system ddY mouse. To be noted: oral 30 mg/kg, FIG. 1. The protocol: The compound A, B, and C were administered orally to the mouse and the effect on the amount of extracellular acetylcholine in the brain was examined. The brain microdyalysis method using the mouse is proposed as a test for evaluating cognitive dysfunction including Alzheimer type dementia. The brain microdyalysis method is a system that can monitor the variation of extracellular neurotransmitter release in real time at the local parts in the brain while the test animals are moving freely without anesthesia.
as §1
In the two days before the start of the experiment, the fixing operation of the guide cannula for inserting the dialysis probe in the mouse was conducted in advance. Under the deep anesthetized conditions, the guide cannula (depth 4 mm) (manufactured by Eicom Corp.,) was inserted in and fixed on cerebral cortex prefrontal area (which was 1.9 mm forward and 0.5 mm right side from the bregma and to which the depth from cranial surface was 0.8 mm). Buprenorphine (0.01 mg/kg manufactured by Sigma-Aldrich Japan) was administered to the mouse as analgesic after the operation. Each mouse was reared in the separate cage after the operation.
In the step of measuring extracellular acetylcholine in the brain, the dialysis probe (membrane length 3 mm) (manufactured by Eicom Corp.,) was inserted in the guide cannula and the Ringer's solution in the Japanese Pharmacopeia (containing NaCl (147.2 mM), KCl (4.0 mM), and CaCl2 (2.2 mM); manufactured by FUSO CHEMICAL CO., LTD.) was perfused at the flow velocity of 1 μL/min. The sample obtained by the perfusion was collected every 20 minutes and was immediately continuously automatically injected in the high-speed liquid chromatography/electrochemical detector (HPLC/ECD) system (manufactured by Eicom Corp., HTEC-500) together with the internal standard material (isopropylhomocholine, 250 fmol) and acetylcholine was measured under the condition described below.
• Column: Eicompak AC-GEL (2.0 mm; i.d.×150 mm) (manufactured by Eicom Corp.,) • Precolumn: PC-05-03 (3.0 mm; i.d.×40 mm) (manufactured by Eicom Corp.,) • Enzyme-immobilized column: AC-Enzympak (3.0 mm; i.d.) (manufactured by Eicom Corp.,) • Mobile Phase: 50 mM potassium hydrogen carbonate buffer containing 400 mg/L sodium decansulfonic acid and 134 μM EDTA (pH 8.3) • Flow Velocity: 150 μl/min. • Temperature of column: 33° C. • Applied voltage of ECD: +450 mV • Reference electrode: Ag/AgCl electrode • Work electrode: platinum electrode
The compound A prepared according to the procedure described in Manufacturing Example 1 was dissolved in 2.5% DMSO solution in advance to prepare for the test. […] The amount of the extracellular acetylcholine released was measured by the procedure described above in (a) Used animal and Rearing Procedure in real time for 120 minutes after the administration. The mouse in Vehicle group took only 2.5% DMSO solution orally in the same way and the amount of the extracellular acetylcholine was measured. […]

`O=C1CC[C@H](Cc2cc(O)cc(O)c2)O1` [compound A, (R)-5-(3,5-dihydroxyphenyl)-γ-valerolactone]: in assay [1] (oral 30 mg/kg, scopolamine 1 mg/kg i.p., FIG. 2(A),(B)), the “ameliorating the impairment of short-term working memory (Spontaneous Alternation)” value is “significant effect of inhibiting the lowering of short-term working memory”. Further, in assay [1] (oral administration groups (10 mg/kg and 30 mg/kg), scopolamine 1 mg/kg i.p. 30 minutes later, FIG. 2(A)), the “lowering of the short-term memory due to scopolamine (Spontaneous Alternation)” value is on record as “inhibited”. Also, the “scopolamine-induced reduction in working memory (Spontaneous Alternation)” value in assay [1] (oral administration) and in assay [1] (subcutaneous administration) was “inhibited scopolamine-induced reductions in working memory” in each case. The “amount of extracellular acetylcholine in the cerebral cortex versus Vehicle group” value in assay [2] (40 and 60 minutes after the administration) is recorded as “significant increase”. For the same molecule, the “amount of extracellular acetylcholine in the cerebral cortex (ratio to basic released amount)” value in assay [2] (measured for 120 minutes after administration, compared with before administration) is listed as “increased”.

Values taken from patent publication US20250120942A1, “BRAIN FUNCTION IMPROVING AGENT” (OSAKA UNIVERSITY, priority 2021, published 2025).
